In patent US20030157715A1, “Modulation of chromosome function by chromatin remodeling agents” (priority 2000, published 2003):

Assays:
Drosophila histone SAR = experiment: DNase I footprinting on SAR probe; format: binding
Experimental: (§1) Synthetic oligonucleotides […] and […] were hybridized to obtain the W9 probe, oligomerized by ligation and digested with BamHI and BglII to obtain different tandem repeats. The following oligonucleotides were prepared identically: GAF31 is composed of the oligonucleotides […] and […] and, BrownI of oligonucleotides […] and […]. Fragments were purified on low-melt agarose gels and then cloned into a modified pSP64 vector, cut by BamHI and BglII. End-labeling was carried out following digestion with HindIII and a fill-in reaction with Klenow DNA polymerase. The labeled plasmid was cut with PvuII and the target fragments purified from low-melting agarose gels. The 657 bp EcoR1/Hinf1 fragment of the Drosophila histone SAR was cloned into the SmaI site of the modified pSP64 plasmid. This SAR probe was end-labeled following-digestion with EcoR1, then cut with ClaI and the resulting 347 bp fragment purified from low-melting agarose gels.
All reactions were performed in a total volume of 40 μl. A polyamide stock solution or buffer (for reference lanes) was added to an assay buffer containing 20 kcpm radiolabeled DNA, affording final concentrations of 10 mM Tris-HCl (pH 7.4), 10 mM KCl, 10 MM MgCl, 5 mM CaCl2, 0.5 mM EDTA, 0.5 mM EGTA, 1 mM DTT and 0.1% digitonine. The solutions were allowed to equilibrate for at least 2 h at room temperature. Footprinting reactions were initiated by the addition of 2 μl of a DNase stock solution (containing −100 μg DNase I in buffer) and allowed to proceed for 2 min at room temperature. The reactions were stopped by addition of 10 μl of a solution containing 1.25 M NaCl, 100 mM EDTA. Next, 5 μl of a 1% SDS solution was added, followed by 2 μl of a solution containing 1 μg poly(dA-dT), 1 μg salmon sperm DNA and 10 μg glycogen and the DNA was ethanol precipitated (20 min at −20 C.). The reactions were resuspended in 4 μl of 80% formamide loading buffer, denatured 10 min at 85 C., cooled on ice and electrophoresed on 8% polyacrylamide denaturing gels (5% cross-link, 8 M urea) at 30 W for 1 h. The gels were dried and exposed o/n at −70 C.

[1] = test system: GAGAA repeats (satellite V / bw^D repeats); experiment: DNase I footprinting on GAGAA repeats (GAF31 and Brown I probes); format: binding, Drosophila melanogaster
Description: FIG. 3 Binding specificity of P31 and GAGA factor Panel A: DNAse I footprinting experiment with P31 and affinity cleavage with P31E are shown on GAF31 and the Brown I probes. The GAF31 and Brown I probes contains a (AAGAG)2 motif and GAGA factor (GAF) binding site from the Ubx promoter (Biggin et al., 1988). […] The Brown I oligo (a tandem repeat) includes an (AAGAG)s binding site and a degenerate P31 binding site (AACAC)2 as indicated. P31 concentrations used (nM) are indicated. Lanes labeled P31E (top) are affinity cleavage reactions with 1 nM of P31E on either probe. Binding orientations of P31E on these probes are indicated by arrowheads on the brackets pointing towards the N-terminus of the molecule. The letter G refers the G nucleotide cleavage reaction. Panel B: DNAse I footprinting experiment with purified GAGA factor (GAF) on the GAF31 probe. Note that GAF binds both the (AAGAG)2 motif and the binding site from the Ubx promoter.
A polyamide that targets the abundant satellite V composed of GAGAA repeats (Lohe et al., 1993) was synthesized. Designing molecules that would bind to this repeat motif represented a challenge since with current knowledge, targeting of sequences containing 5′-GNG-3′ or 5′-GA-3′ with drugs composed of pyrrole and imidazole is difficult. However, successful targeting to sequences containing 5′-GTG-3′ was previously achieved using an Im-β-Im motif where β-alanine replaces the function of pyrrole (Turner et al., 1998). Since β-alanine, like pyrroles, is degenerate for […] and T^•A base pairs, we designed a compound based on these observations, to recognize a sequence composed of two tandem GAGAA repeats by systematic placement of -alanine at the N-terminal neighbor of imidazole. The binding affinity and specificity of this compound, termed P31 (=Im-β-Im-Py-β-Im-β-Im-β-Dp), were evaluated by DNAse I footprinting. For this purpose, two different probes were examined, both containing GAGAA repeats. […] The apparent binding constant of P31 for this sequence was estimated at 0.25 nM. […]

[2] = test system: homozygous bw^D/bw^D flies; experiment: P31 fed to developing homozygous brown-dominant flies; format: in vivo; settings: 40 homozygous bw^D males
CACAA repeats = experiment: DNase I footprinting on CACAA repeats (Brown I probe); format: binding
Description: A drawback of this binding model, as opposed to conventional 2:1 drug to DNA complexes, is that P31 is expected to bind degenerate GC and CG base pairs, albeit with different affinity. The consensus sequence can thus be defined as SWSWWSWSWW, where S stands for a G or C and W for A or T. To evaluate binding of P31 to CACAA repeats, we used a second probe that contains two of these repeats as well as five tandem GAGAA repeats. […] Again, it is observed than this molecule binds as a 1:1 drug to DNA complex in an orientation as indicated by arrowheads (FIG. 3A). We propose that special structural features of AT-tracts and GAGAA repeats might favor 1:1 DNA to drug complexes.
as §1, with “The 657 bp EcoR1/Hinf1 fragment of the Drosophila histone SAR was cloned into the SmaI site of the modified pSP64 plasmid. This SAR probe was end-labeled following-digestion with EcoR1, then cut with ClaI and the resulting 347 bp fragment purified from low-melting agarose gels.” left out

Row | Structure (SMILES) | Ratio (Drosophila histone SAR; Kdapp W9 / Kdapp SAR (SAR specificity factor)) | Kd (Drosophila histone SAR; apparent binding affinity, DNase I footprinting, SAR probe, read-out: Kdapp SAR) | concentration at which bw^D repeats are protected ([1]; 2 consecutive bw^D repeats (GAGAAGAGAA)) | Kd ([1]; DNase I footprinting, read-out: apparent binding constant for two GAGAA repeats) | affinity for target binding site (in words) ([1]; two GAGAA repeats) | mean number of bristles on A6 [2] | affinity for CACAA repeats relative to GAGAA repeats (CACAA repeats)
1 | CN(C)CCCNC(=O)CCNC(=O)c1cc(NC(=O)c2cc(NC(=O)c3cc(NC(=O)CCNC(=O)c4cc(NC(=O)c5cc(NC(=O)c6cccn6C)cn5C)cn4C)cn3C)cn2C)cn1C [Compound P9, PyPyPy-β-PyPyPy-β-Dp] | 1.4 | 0.55 nM | – | – | – | – | –
2 | CN(C)CCCNC(=O)CCNC(=O)c1nc(NC(=O)CCNC(=O)c2nc(NC(=O)CCNC(=O)c3cc(NC(=O)c4nc(NC(=O)CCNC(=O)c5nccn5C)cn4C)cn3C)cn2C)cn1C [Compound P31, Im-β-Im-Py-β-Im-β-Im-β-Dp] | – | – | 0.1 nM | 0.25 nM | subnanomolar affinity | 6 | approximately five fold lower affinity
